Experimental data from patent US20230218563A1, “METHODS FOR TREATING OR PREVENTING CHRONIC KIDNEY DISEASE” (Arthrosi Therapeutics, Inc., priority 2020, published 2023).

Tests used:
[1] = Solubility of test articles in HBSS assay buffer; conditions: all tested concentrations, highest 10 μM
Procedure: Before the experiment, the medium was removed and the cells were washed twice with 100 μL of HBSS without Cl^−. Uptake experiments were carried out at 37±1° C. in 50 μL of HBSS without Cl^−, pH 7.4 containing the probe substrate (20 μM uric acid) and the test article (TA) or solvent.

[2] = In vitro metabolism in human liver microsomes; assay type: in vitro ADME; conditions: human liver microsomes 0.5 mg/mL, NADPH, 60 minutes, 37° C.
Procedure: After pre-warming the mixture at 37° C. for 5 minutes, the reaction was initiated by the addition of 1 mM of NADPH and incubated for 60 minutes at 37° C. in a shaking water bath. The reaction was terminated by the addition of 0.5 mL ice-cold acetonitrile. Time 0 incubation was also performed by adding acetonitrile before the addition of microsomes to the incubation mixture as a reference sample for each species. Following vortex and centrifugation at 15,000 g for 3 minutes at room temperature, resulting supernatant was concentrated under nitrogen flow at 33° C., until approximately 0.5 mL of sample remained. The extract was then transferred to a 1.5-mL centrifuge vial for centrifugation at 15,000 g for 3 minutes. Finally, aliquots of the supernatant were transferred to HPLC vials for HPLC-MS analyses.
MS Analysis: Mass spectral analyses were performed on an Agilent single quadruple mass spectrometer equipped with an Agilent 1100 HPLC system. The mass spectrometer was fitted with an electrospray ionization (ESI) source and operated in a negative scan mode between 400 and 500 amu: […]

serum uric acid (sUA) = assay: Phase 2a cross-over study in adults with gout, serum uric acid; assay type: in vivo, human; conditions: for patients with sUA levels below 5 mg/dL / patients with sUA levels below 6 mg/dL: gout patients (sUA>7 mg/dL), alone or combined; for mean sUA level reached at maximum: mean baseline 8.9 mg/dL
[3] = molecular target: T1, human URAT1 uptake transporter (Homo sapiens, UniProt Q96S37); assay: Inhibition of URAT1 mediated uric acid uptake in MDCKII cells stably expressing human URAT1; assay type: cell-based; conditions: MDCKII cells expressing human URAT1; 20 μM uric acid probe; read-out: IC50, inhibition of URAT1 mediated uric acid accumulation
T1 construct: expressed in transfected cells
T1 sequence (Q96S37 1-553): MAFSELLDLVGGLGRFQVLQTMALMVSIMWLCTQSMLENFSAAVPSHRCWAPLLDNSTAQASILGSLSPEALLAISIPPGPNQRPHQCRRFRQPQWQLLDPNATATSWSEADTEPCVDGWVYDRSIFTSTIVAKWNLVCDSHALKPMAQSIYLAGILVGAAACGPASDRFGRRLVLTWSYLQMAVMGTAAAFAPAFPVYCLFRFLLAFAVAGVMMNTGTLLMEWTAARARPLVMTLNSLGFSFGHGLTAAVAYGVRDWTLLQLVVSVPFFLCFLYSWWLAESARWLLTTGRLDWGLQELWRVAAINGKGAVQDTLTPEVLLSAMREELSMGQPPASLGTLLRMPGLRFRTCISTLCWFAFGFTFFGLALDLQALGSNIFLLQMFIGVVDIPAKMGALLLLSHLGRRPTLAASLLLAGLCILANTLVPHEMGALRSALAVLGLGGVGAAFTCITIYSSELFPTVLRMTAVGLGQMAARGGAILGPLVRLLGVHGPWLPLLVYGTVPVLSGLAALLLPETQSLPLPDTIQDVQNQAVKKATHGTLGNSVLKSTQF
Procedure: Uptake experiments were performed using MDCKII cells stably expressing the human URAT1 uptake transporter. Cells were cultured at 37±1° C. in an atmosphere of 95:5 air:CO2 and were plated onto standard 96-well tissue culture plates at the cell number described in Table 1.
Radiolabeled probe substrate transport was determined by measuring an aliquot (35 μL) from each well for liquid scintillation counting.

[4] = test system: urine albumin-to-creatinine ratio (UACR); assay: Phase 2a study, UACR in a subject with albuminuria; assay type: in vivo, human; conditions: one subject with albuminuria, baseline 96 mg/g; sequential 7-day periods: Compound 1 50 mg (Day 7), Compound 1 50 mg/allopurinol 300 mg (Day 14), allopurinol 300 mg (Day 21)
Excerpt: Urine samples were collected for assessment of uric acid excretion. Laboratory safety tests, vital signs, and electrocardiograms were collected throughout the study.

[5] = once daily, Compound 1 50 mg, febuxostat 40 mg, allopurinol 300 mg
[6] = gout patients, once daily, Compound 1 50 mg, febuxostat 40 mg, allopurinol 300 mg, alone (Day 7/Day 21) or combined

Structure (SMILES)	solubility in HBSS buffer [1]	Parent, % MS response (parent left) [2] [%]	patients with sUA levels below 5 mg/dL (serum uric acid (sUA); [5]) [%]	patients with sUA levels below 6 mg/dL (serum uric acid (sUA); [5]) [%]	mean sUA level reached at maximum (serum uric acid (sUA); [6]) [mg/dL]	reduction of mean sUA from baseline (serum uric acid (sUA); [6]) [%]	IC50 [3] [nM]	UACR [4] [mg/g]	UACR % change from baseline [4] [%]	sUA % change from baseline (serum uric acid (sUA); one subject with albuminuria, sequential 7-day periods: Compound 1 50 mg (Day 7), Compound 1 50 mg/allopurinol 300 mg (Day 14), allopurinol 300 mg (Day 21)) [%]
CCc1oc2ccccc2c1C(=O)c1cc(Br)c(O)c(Br)c1 [benzbromarone, reference compound]	soluble	13.1	–	–	–	–	–	–	–	–
Cc1nc(-c2ccc(OCC(C)C)c(C#N)c2)sc1C(=O)O [febuxostat]	–	–	33	67	5.5	38.9	–	–	–	–
[2H]c1c(O)c([2H])c2oc(C(C)O)c(C(=O)c3cc(Br)c(O)c(Br)c3)c2c1[2H] (centres unmarked) [Compound 2, (3,5-dibromo-4-hydroxyphenyl)(6-hydroxy-2-(1-hydroxyethyl)benzofuran-3-yl-4,5,7-d3)methanone]	soluble	–	–	–	–	–	913	–	–	–
Oc1ncnc2[nH]ncc12 [allopurinol]	–	–	11	56	5.8	–	–	55	−42.6	−40
